# Values of other authors, collected in patent US20120141434A1, “Methods for Selecting Expanded Stem Cell Populations” (Gamida Cell Ltd., priority 2009, published 2012).
# Key:
# [1] = test system: cord blood-derived progenitor cells; details: three-week treatment of cord blood cultures supplemented with early acting cytokines
# NOD/SCID mice = details: TEPA treated cultures compared to untreated cultures
smiles,measurement,setting,value
"NCCNCCNCCNCCN [TEPA, tetraethylenepentamine]",ex vivo expansion of CD34+ cells,[1],prolonged and extensive
same,"percentages of early progenitors (CD34+CD38−, CD34+CD38−Lin-)",[1],higher
same,engraftment potential in NOD/SCID mice,NOD/SCID mice,increased
